Experimental data taken from publication PMC5999115, “Anti-tumor activity of phenoxybenzamine and its inhibition of histone deacetylases” (PLoS ONE, 2018).

What was measured:
HDAC1 = target: T1, HDAC1 (Homo sapiens, UniProt Q13547); test: Fluorogenic HDAC deacetylase assay (BPS Bioscience); type: biochemical; conditions: read-out: % inhibition @ 10 uM
T1 construct: purchased BPS Bioscience 50051

HDAC10 = target: T2, HDAC10 (Homo sapiens, UniProt Q969S8); test: as above; type: biochemical; conditions: read-out: % inhibition @ 10 uM
T2 construct: purchased BPS Bioscience 50060
T2 sequence (Q969S8 whole entry): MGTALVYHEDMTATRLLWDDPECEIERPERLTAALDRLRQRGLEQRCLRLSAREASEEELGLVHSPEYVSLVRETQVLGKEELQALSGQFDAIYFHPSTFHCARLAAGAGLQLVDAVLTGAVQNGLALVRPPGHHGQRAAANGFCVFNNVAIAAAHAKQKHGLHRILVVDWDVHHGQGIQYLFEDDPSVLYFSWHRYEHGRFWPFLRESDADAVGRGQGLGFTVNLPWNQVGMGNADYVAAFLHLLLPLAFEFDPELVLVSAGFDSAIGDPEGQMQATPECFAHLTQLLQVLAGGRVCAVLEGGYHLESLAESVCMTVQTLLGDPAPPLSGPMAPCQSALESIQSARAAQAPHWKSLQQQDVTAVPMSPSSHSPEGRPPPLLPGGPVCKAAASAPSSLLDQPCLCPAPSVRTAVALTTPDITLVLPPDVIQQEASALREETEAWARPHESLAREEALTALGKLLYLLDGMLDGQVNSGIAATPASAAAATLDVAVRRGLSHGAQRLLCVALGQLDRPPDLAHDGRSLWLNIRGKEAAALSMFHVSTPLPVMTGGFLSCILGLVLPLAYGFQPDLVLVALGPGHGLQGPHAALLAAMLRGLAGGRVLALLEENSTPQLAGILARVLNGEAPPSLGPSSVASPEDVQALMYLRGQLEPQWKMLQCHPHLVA

HDAC2 = target: T3, HDAC2 (Homo sapiens, UniProt Q92769); test: biochemical; conditions: read-out: % inhibition @ 10 uM
T3 construct: purchased BPS Bioscience 50002
T3 sequence (Q92769 whole entry): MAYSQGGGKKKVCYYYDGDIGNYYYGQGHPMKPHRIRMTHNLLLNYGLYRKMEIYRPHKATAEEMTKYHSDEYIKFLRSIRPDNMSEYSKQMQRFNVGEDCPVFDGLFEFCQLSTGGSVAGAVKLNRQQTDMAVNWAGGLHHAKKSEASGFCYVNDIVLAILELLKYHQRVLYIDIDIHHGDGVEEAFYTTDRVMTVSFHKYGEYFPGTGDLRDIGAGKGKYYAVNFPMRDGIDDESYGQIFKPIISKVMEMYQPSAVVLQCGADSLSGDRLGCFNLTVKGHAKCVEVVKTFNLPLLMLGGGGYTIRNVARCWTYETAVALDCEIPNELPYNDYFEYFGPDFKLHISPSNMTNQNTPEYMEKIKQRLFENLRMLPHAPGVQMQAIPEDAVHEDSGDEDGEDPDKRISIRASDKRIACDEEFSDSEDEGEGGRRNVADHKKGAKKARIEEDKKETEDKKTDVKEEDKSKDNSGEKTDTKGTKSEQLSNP

HDAC5 = target: T4, HDAC5 (Homo sapiens, UniProt Q9UQL6); test: Fluorogenic HDAC deacetylase assay (BPS Bioscience); type: biochemical
T4 construct: purchased BPS Bioscience 50005
T4 sequence (Q9UQL6 656-1122 limits assumed): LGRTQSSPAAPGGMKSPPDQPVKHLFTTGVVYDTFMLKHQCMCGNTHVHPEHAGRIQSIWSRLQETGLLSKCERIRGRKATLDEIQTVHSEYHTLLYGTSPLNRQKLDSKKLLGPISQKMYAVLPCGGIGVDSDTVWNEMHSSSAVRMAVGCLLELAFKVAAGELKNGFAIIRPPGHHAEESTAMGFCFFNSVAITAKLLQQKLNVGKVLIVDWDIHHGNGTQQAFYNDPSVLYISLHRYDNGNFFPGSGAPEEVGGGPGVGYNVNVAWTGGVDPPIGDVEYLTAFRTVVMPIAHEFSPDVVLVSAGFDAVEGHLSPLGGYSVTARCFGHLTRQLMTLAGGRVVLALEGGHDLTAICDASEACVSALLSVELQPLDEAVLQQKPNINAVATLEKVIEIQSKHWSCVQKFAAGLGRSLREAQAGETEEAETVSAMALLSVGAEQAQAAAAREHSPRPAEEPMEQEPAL

NCI-H522 = test: NCI60 screen, Sulforhodamine B assay; type: cell-based, human; conditions: 10 μM phenoxybenzamine
Description: (§1) The results of these studies were included in an application for the screening of PBZ in the National Cancer Institute NCI60 screening program (https://dtp.cancer.gov/discovery_development/nci-60); they measured its effects on growth in cultures of 60 human tumors. This initial screen was conducted at only one drug concentration, 10 μM. We supplied the United States Pharmacopeial reference standard of PBZ-hydrochloride in powder form. The NCI60 standard procedure for dissolution of a synthetic molecule like PBZ involved initial dilution in 9:1 dimethyl sulfoxide (DMSO): glycerol at a concentration of 4 mM; the solution was then diluted 1:200 with complete culture medium (RPMI 1640 medium containing 5% fetal calf serum (FCS), 2 mM L-glutamine and 50 μg/ml gentamicin to give a final concentration of 20 μM; 100 μl of the drug-medium mixture was added to 100 μl of the cell cultures already in complete medium. The microtiter plates were incubated for 48 hr at 37°C, 5% CO2, 95% air, and 100% relative humidity (see S1 Appendix for further details).
(§2) The reason for the lack of activity after dissolution in DMSO has not been pursued further, but DMSO was eliminated in all subsequent assay systems.

UACC-257 = test: NCI60 screen, Sulforhodamine B assay; type: cell-based, human; conditions: 10 μM phenoxybenzamine
Description: as §1, §2

OVCAR-8 = test: NCI60 screen, Sulforhodamine B assay; type: cell-based, human; conditions: 10 μM phenoxybenzamine
Description: as §1, §2

RPMI 8226 = test: NCI60 screen, Sulforhodamine B assay; type: cell-based, human; conditions: 10 μM phenoxybenzamine
Description: as §1, §2

T47D = test: NCI60 screen, Sulforhodamine B assay; type: cell-based, human; conditions: 10 μM phenoxybenzamine
Description: as §1, §2

PC-3 = test: NCI60 screen, Sulforhodamine B assay; type: cell-based, human; conditions: 10 μM phenoxybenzamine
Description: as §1, §2

HDAC7 = target: T5, HDAC7 (Homo sapiens, UniProt Q8WUI4); test: Fluorogenic HDAC deacetylase assay (BPS Bioscience); type: biochemical
T5 construct: purchased BPS Bioscience 50007
T5 sequence (Q8WUI4 518-952 limits assumed): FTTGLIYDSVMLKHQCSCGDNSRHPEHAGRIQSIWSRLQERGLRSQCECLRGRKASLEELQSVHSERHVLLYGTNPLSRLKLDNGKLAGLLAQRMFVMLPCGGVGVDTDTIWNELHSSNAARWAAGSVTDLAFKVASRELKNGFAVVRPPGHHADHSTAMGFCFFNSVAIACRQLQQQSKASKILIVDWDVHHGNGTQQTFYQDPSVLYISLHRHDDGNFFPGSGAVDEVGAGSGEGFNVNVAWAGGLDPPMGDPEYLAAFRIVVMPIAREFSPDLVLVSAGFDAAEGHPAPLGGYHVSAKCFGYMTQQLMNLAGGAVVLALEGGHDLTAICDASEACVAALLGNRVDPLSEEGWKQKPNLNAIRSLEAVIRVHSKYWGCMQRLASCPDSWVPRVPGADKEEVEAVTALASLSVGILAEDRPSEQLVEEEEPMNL

LXFA NCI-H522 = test: Oncotest CellTiter-Blue cell viability assay, 72 hours; type: cell-based, human
Description: (§3) Further studies with varying drug concentrations on selected human cell lines, in most cases those studied in the NCI60 screen, were conducted by Oncotest GmbH laboratories, Freiburg, Germany; Oncotest is a division of Charles River Laboratories. The dissolution procedure for PBZ and the cell culture […] was 72 hours; anti-tumor activity was determined with the CellTiter-Blue® Cell Viability Assay, Promega, Mannheim, Germany. The 50% Inhibitory (IC50) concentrations were determined. The results are the average of duplicate assays. Paclitaxel was included as a reference compound to confirm the integrity of the assays. See S1 Appendix for further details.
(§4) “Cell lines were routinely passaged once or twice weekly and maintained in culture for up to 20 passages. Cells were grown at 37°C in a humidified atmosphere with 5% CO2 in RPMI 1640 medium (25 mM HEPES, with L-glutamine, #FG1385, Biochrom, Berlin, Germany) supplemented with 10% (v/v) fetal calf serum (Sigma, Taufkirchen, Germany) and 0.1 mg/mL gentamicin (Life Technologies, Karlsruhe, Germany).”

PRXF PC-3 = test: as above; type: cell-based, human
Description: as §3, §4

OVXF OVCAR-8 = test: as above; type: cell-based, human
Description: as §3, §4

[1] = LXFA NCI-H522, 1% FCS, study P495C
[2] = LXFA NCI-H522, 10% FCS, study P495A
[3] = LXFA NCI-H522, 10% FCS, study P495B
[4] = PRXF PC-3, 10% FCS, study P495A
[5] = PRXF PC-3, 10% FCS, study P495B
[6] = OVXF OVCAR-8, 1% FCS, study P495C
[7] = OVXF OVCAR-8, 10% FCS, study P495A
[8] = OVXF OVCAR-8, 10% FCS, study P495B

T1 sequence (Q13547 whole entry): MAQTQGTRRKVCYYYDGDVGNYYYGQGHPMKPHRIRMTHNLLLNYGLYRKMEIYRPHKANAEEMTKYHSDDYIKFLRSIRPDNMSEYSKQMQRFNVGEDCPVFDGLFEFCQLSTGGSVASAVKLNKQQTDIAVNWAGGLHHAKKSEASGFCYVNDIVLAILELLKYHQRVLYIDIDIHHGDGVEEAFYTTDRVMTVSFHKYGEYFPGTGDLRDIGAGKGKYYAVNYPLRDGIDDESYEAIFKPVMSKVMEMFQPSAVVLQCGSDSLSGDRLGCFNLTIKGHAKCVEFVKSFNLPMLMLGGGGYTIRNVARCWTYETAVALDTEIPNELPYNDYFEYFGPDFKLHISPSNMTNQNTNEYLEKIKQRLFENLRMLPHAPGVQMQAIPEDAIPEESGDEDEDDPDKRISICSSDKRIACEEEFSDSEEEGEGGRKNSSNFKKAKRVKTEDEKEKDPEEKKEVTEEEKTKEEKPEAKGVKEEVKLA

CC(COc1ccccc1)N(CCCl)Cc1ccccc1 (stereo not drawn) [PBZ, phenoxybenzamine]
inhibition at 10 µM (HDAC1): 16%
inhibition at 10 µM (HDAC10): 0%
inhibition at 10 µM (HDAC2): 0%
IC50 (HDAC5): 9.8 µM
Percent cell growth in NCI60 screen with 5% FCS (48 hr incubation) (NCI-H522): 73%
Percent cell growth in NCI60 screen with 5% FCS (48 hr incubation) (UACC-257): 76%
Percent cell growth in NCI60 screen with 5% FCS (48 hr incubation) (OVCAR-8): 53%
Percent cell growth in NCI60 screen with 5% FCS (48 hr incubation) (RPMI 8226): 60%
Percent cell growth in NCI60 screen with 5% FCS (48 hr incubation) (T47D): 60%
Percent cell growth in NCI60 screen with 5% FCS (48 hr incubation) (PC-3): 63%
% inhibition @ 10 uM (HDAC7; HDAC7, 10 µM): ~30%
inhibition at 10 µM (HDAC7; read-out: % inhibition @ 10 uM, HDAC7): 34%
Percent cell growth in Oncotest screen with 10% FCS (72 hr incubation) (LXFA NCI-H522; 10 μM phenoxybenzamine, NCI-H522): 108%
IC50 (LXFA NCI-H522; Homo sapiens, LXFA NCI-H522 Non-small-cell lung, 1% FCS): 51.5 µM
Test/Control (%) at Drug Concentration [uM] 1,0E+00 (LXFA NCI-H522; [1]): 99%
Test/Control (%) at Drug Concentration [uM] 1,0E+01 (LXFA NCI-H522; [1]): 99%
Test/Control (%) at Drug Concentration [uM] 1,0E+02 (LXFA NCI-H522; [1]): 6%
Test/Control (%) at Drug Concentration [uM] 3,2E+00 (LXFA NCI-H522; [1]): 106%
Test/Control (%) at Drug Concentration [uM] 3,2E+01 (LXFA NCI-H522; [1]): 89%
Test/Control (%) at Drug Concentration [uM] 1,0E+00 (LXFA NCI-H522; [2]): 99%
Test/Control (%) at Drug Concentration [uM] 1,0E+01 (LXFA NCI-H522; [2]): 108%
Test/Control (%) at Drug Concentration [uM] 1,0E+02 (LXFA NCI-H522; [2]): 14%
Test/Control (%) at Drug Concentration [uM] 1,0E-01 (LXFA NCI-H522; [2]): 96%
Test/Control (%) at Drug Concentration [uM] 1,0E-02 (LXFA NCI-H522; [2]): 81%
Test/Control (%) at Drug Concentration [uM] 3,2E+00 (LXFA NCI-H522; [2]): 107%
Test/Control (%) at Drug Concentration [uM] 3,2E+01 (LXFA NCI-H522; [2]): 110%
Test/Control (%) at Drug Concentration [uM] 3,2E-01 (LXFA NCI-H522; [2]): 98%
Test/Control (%) at Drug Concentration [uM] 3,2E-02 (LXFA NCI-H522; [2]): 82%
Test/Control (%) at Drug Concentration [uM] 3,2E-03 (LXFA NCI-H522; [2]): 76%
Test/Control (%) at Drug Concentration [uM] 1,0E+00 (LXFA NCI-H522; [3]): 100%
Test/Control (%) at Drug Concentration [uM] 1,0E+01 (LXFA NCI-H522; [3]): 93%
Test/Control (%) at Drug Concentration [uM] 1,0E+02 (LXFA NCI-H522; [3]): 29%
Test/Control (%) at Drug Concentration [uM] 1,0E-01 (LXFA NCI-H522; [3]): 100%
Test/Control (%) at Drug Concentration [uM] 1,0E-02 (LXFA NCI-H522; [3]): 100%
Test/Control (%) at Drug Concentration [uM] 1,0E-03 (LXFA NCI-H522; [3]): 100%
Test/Control (%) at Drug Concentration [uM] 3,2E+00 (LXFA NCI-H522; [3]): 100%
Test/Control (%) at Drug Concentration [uM] 3,2E+01 (LXFA NCI-H522; [3]): 97%
Percent cell growth in Oncotest screen with 10% FCS (72 hr incubation) (PRXF PC-3; 10 μM phenoxybenzamine, PC-3): 86%
IC50 (PRXF PC-3; Homo sapiens, PRXF PC-3 Prostate, 1% FCS): 29.8 µM
Test/Control (%) at Drug Concentration [uM] 1,0E+00 (PRXF PC-3; PRXF PC-3, 1% FCS, study P495C): 102%
Test/Control (%) at Drug Concentration [uM] 1,0E+01 (PRXF PC-3; PRXF PC-3, 1% FCS, study P495C): 100%
Test/Control (%) at Drug Concentration [uM] 1,0E+02 (PRXF PC-3; PRXF PC-3, 1% FCS, study P495C): 22%
Test/Control (%) at Drug Concentration [uM] 3,2E+00 (PRXF PC-3; PRXF PC-3, 1% FCS, study P495C): 105%
Test/Control (%) at Drug Concentration [uM] 3,2E+01 (PRXF PC-3; PRXF PC-3, 1% FCS, study P495C): 58%
Test/Control (%) at Drug Concentration [uM] 1,0E+00 (PRXF PC-3; [4]): 86%
Test/Control (%) at Drug Concentration [uM] 1,0E+01 (PRXF PC-3; [4]): 86%
Test/Control (%) at Drug Concentration [uM] 1,0E+02 (PRXF PC-3; [4]): 52%
Test/Control (%) at Drug Concentration [uM] 1,0E-01 (PRXF PC-3; [4]): 87%
Test/Control (%) at Drug Concentration [uM] 1,0E-02 (PRXF PC-3; [4]): 83%
Test/Control (%) at Drug Concentration [uM] 3,2E+00 (PRXF PC-3; [4]): 89%
Test/Control (%) at Drug Concentration [uM] 3,2E+01 (PRXF PC-3; [4]): 82%
Test/Control (%) at Drug Concentration [uM] 3,2E-01 (PRXF PC-3; [4]): 91%
Test/Control (%) at Drug Concentration [uM] 3,2E-02 (PRXF PC-3; [4]): 87%
Test/Control (%) at Drug Concentration [uM] 3,2E-03 (PRXF PC-3; [4]): 91%
Test/Control (%) at Drug Concentration [uM] 1,0E+00 (PRXF PC-3; [5]): 89%
Test/Control (%) at Drug Concentration [uM] 1,0E+01 (PRXF PC-3; [5]): 77%
Test/Control (%) at Drug Concentration [uM] 1,0E+02 (PRXF PC-3; [5]): 49%
Test/Control (%) at Drug Concentration [uM] 1,0E-01 (PRXF PC-3; [5]): 84%
Test/Control (%) at Drug Concentration [uM] 1,0E-02 (PRXF PC-3; [5]): 88%
Test/Control (%) at Drug Concentration [uM] 1,0E-03 (PRXF PC-3; [5]): 81%
Test/Control (%) at Drug Concentration [uM] 3,2E+00 (PRXF PC-3; [5]): 92%
Test/Control (%) at Drug Concentration [uM] 3,2E+01 (PRXF PC-3; [5]): 74%
Percent cell growth in Oncotest screen with 10% FCS (72 hr incubation) (OVXF OVCAR-8; 10 μM phenoxybenzamine, OVCAR-8): 90%
IC50 (OVXF OVCAR-8; Homo sapiens, OVXF OVCAR-8 Ovarian, 1% FCS): 31.9 µM
Test/Control (%) at Drug Concentration [uM] 1,0E+00 (OVXF OVCAR-8; [6]): 102%
Test/Control (%) at Drug Concentration [uM] 1,0E+01 (OVXF OVCAR-8; [6]): 100%
Test/Control (%) at Drug Concentration [uM] 1,0E+02 (OVXF OVCAR-8; [6]): 22%
Test/Control (%) at Drug Concentration [uM] 3,2E+00 (OVXF OVCAR-8; [6]): 104%
Test/Control (%) at Drug Concentration [uM] 3,2E+01 (OVXF OVCAR-8; [6]): 61%
Test/Control (%) at Drug Concentration [uM] 1,0E+00 (OVXF OVCAR-8; [7]): 84%
Test/Control (%) at Drug Concentration [uM] 1,0E+01 (OVXF OVCAR-8; [7]): 90%
Test/Control (%) at Drug Concentration [uM] 1,0E+02 (OVXF OVCAR-8; [7]): 67%
Test/Control (%) at Drug Concentration [uM] 1,0E-01 (OVXF OVCAR-8; [7]): 85%
Test/Control (%) at Drug Concentration [uM] 1,0E-02 (OVXF OVCAR-8; [7]): 90%
Test/Control (%) at Drug Concentration [uM] 3,2E+00 (OVXF OVCAR-8; [7]): 92%
Test/Control (%) at Drug Concentration [uM] 3,2E+01 (OVXF OVCAR-8; [7]): 96%
Test/Control (%) at Drug Concentration [uM] 3,2E-01 (OVXF OVCAR-8; [7]): 86%
Test/Control (%) at Drug Concentration [uM] 3,2E-02 (OVXF OVCAR-8; [7]): 86%
Test/Control (%) at Drug Concentration [uM] 3,2E-03 (OVXF OVCAR-8; [7]): 84%
Test/Control (%) at Drug Concentration [uM] 1,0E+00 (OVXF OVCAR-8; [8]): 89%
Test/Control (%) at Drug Concentration [uM] 1,0E+01 (OVXF OVCAR-8; [8]): 82%
Test/Control (%) at Drug Concentration [uM] 1,0E+02 (OVXF OVCAR-8; [8]): 32%
Test/Control (%) at Drug Concentration [uM] 1,0E-01 (OVXF OVCAR-8; [8]): 86%
Test/Control (%) at Drug Concentration [uM] 1,0E-02 (OVXF OVCAR-8; [8]): 90%
Test/Control (%) at Drug Concentration [uM] 1,0E-03 (OVXF OVCAR-8; [8]): 92%
Test/Control (%) at Drug Concentration [uM] 3,2E+00 (OVXF OVCAR-8; [8]): 84%
Test/Control (%) at Drug Concentration [uM] 3,2E+01 (OVXF OVCAR-8; [8]): 74%
